The results in this text go back to ChEMBL document CHEMBL1201862, “PubChem BioAssay data set” (2004).

Test systems include KM12; U-251; SNB-19; M14; SF-295; OVCAR-4; MDA-MB-231; EKVX; HCC 2998; 786-0; HOP-62; SW-620; SK-MEL-2; T47D; A498; NCI-H522; RXF 393; SR; HOP-92; LOX IMVI.
What all share (assay): NCI-60 cell line screen, 48 h

Structures are written as SMILES.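 Where inhibition never reached the appropriate level, the endpoint shown equals the highest concentration tested. Otherwise, values were interpolated linearly from a five-concentration, 48-hour dose response in 96-well plates. GI50 = concentration required for 50% inhibition of growth.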 Active and inactive are the calls of the source. No stated cut-off is given here; in the data, active = GI50 up to about 1.1 µM and inactive = higher.

With `c1ccc2c(c1)ccc1nc(-c3ccc4c(c3)OCO4)c3c(c12)CCCC3`, the GI50 in the test on KM12 was 11.3 µM (inactive); with U-251, 7.6 µM (inactive); in the test with SNB-19, 77.8 µM (inactive); in the test with M14 it was 28.7 µM (inactive); with SF-295, 12.2 µM (inactive); in the test with OVCAR-4 it was 13.6 µM (inactive). Moreover, the GI50 with MDA-MB-231 was 4.48 µM (inactive); in the test on EKVX, 37.1 µM (inactive); with HCC 2998, 31.7 µM (inactive); with 786-0, 26.1 µM (inactive); in the test on HOP-62, 41.9 µM (inactive); in the test on SW-620, 29.2 µM (inactive). Moreover, the GI50 in the test on SK-MEL-2 was 23.2 µM (inactive); in the test with T47D, 11.3 µM (inactive); with A498 it was 14.6 µM (inactive).

In the case of `C[C@H]1CCCCC[C@@H]2CC(=O)CC2C(=O)CCC(=O)O1` (stereo not given in full), the GI50 in the test with KM12, in the test on U-251, with SNB-19, in the test with NCI-H522, in the test with M14 and in the test with SF-295 was > 100 µM (inactive) throughout. The GI50 in the test on OVCAR-4, in the test with MDA-MB-231, in the test on EKVX, in the test with HCC 2998, in the test on RXF 393 and in the test on 786-0 was > 100 µM (inactive) in each case. Also, the GI50 in the test on HOP-62, with SW-620, with T47D, in the test on SR and with HOP-92 was > 100 µM (inactive) each time.

Regarding `c1cc(CSP234N5CCN2CCN3CCN4CC5)cc(CSP234N5CCN2CCN3CCN4CC5)c1`, the GI50 with KM12 was 19.5 µM (inactive); in the test on U-251, 21.9 µM (inactive); with SNB-19, 27.9 µM (inactive); with NCI-H522 it was 16.9 µM (inactive); in the test with M14, 18.6 µM (inactive); in the test with SF-295, 14.2 µM (inactive). The GI50 with OVCAR-4 is 32.9 µM (inactive); in the test with MDA-MB-231 it was 14.8 µM (inactive); in the test on EKVX, 63.2 µM (inactive); in the test on LOX IMVI it was 16.1 µM (inactive); with HCC 2998 it was 19.3 µM (inactive); in the test with 786-0, > 100 µM (inactive). For the same compound, the GI50 in the test on HOP-62 was 28.6 µM (inactive); in the test with SW-620, 28.8 µM (inactive); in the test on SK-MEL-2 it was 19.2 µM (inactive); in the test on T47D it was > 100 µM (inactive); in the test on SR, 4.91 µM (inactive); in the test on HOP-92, 21.5 µM (inactive).

As to `CN1C(=O)C(O)C[C@@H]1c1ccccc1` (stereo not given in full), the GI50 in the test on KM12, in the test on U-251, with SNB-19, in the test on NCI-H522, with M14 and with SF-295 was > 100 µM (inactive) throughout. In addition, the GI50 in the test with OVCAR-4, in the test with MDA-MB-231, in the test on EKVX, with LOX IMVI, in the test with HCC 2998 and in the test on RXF 393 was > 100 µM (inactive) in each case. Besides, the GI50 in the test on 786-0, in the test on HOP-62, in the test with SW-620, in the test on SK-MEL-2, with T47D and in the test on SR was > 100 µM (inactive) throughout. Moreover, the GI50 in the test with HOP-92 is > 100 µM (inactive).

Take `CCOP(=O)(OCC)C(C)(C)OC(=O)NC(F)(F)F`: the GI50 with KM12, with U-251, in the test on SNB-19, in the test with M14, in the test on SF-295 and with OVCAR-4 was > 100 µM (inactive) throughout. In addition, the GI50 with MDA-MB-231, in the test with EKVX, with LOX IMVI, in the test on HCC 2998, with RXF 393 and with 786-0 was > 100 µM (inactive) in each case. Moreover, the GI50 with HOP-62, with SW-620, with SK-MEL-2, with T47D and with SR was > 100 µM (inactive) in each case.

With `CCOC(=O)Nn1c(C)nnc1CC#N`, the GI50 in the test on KM12, in the test on U-251, with SNB-19, in the test with NCI-H522, in the test with M14 and in the test on SF-295 was > 100 µM (inactive) each time. Further, the GI50 in the test on MDA-MB-231, in the test with LOX IMVI, in the test on HCC 2998, in the test on RXF 393, in the test on 786-0 and in the test with HOP-62 was > 100 µM (inactive) each time. Moreover, the GI50 was > 100 µM (inactive) in the test on SW-620; > 100 µM (inactive) with SK-MEL-2; > 100 µM (inactive) in the test with T47D; > 100 µM (inactive) in the test with SR; 58.9 µM (inactive) in the test with HOP-92.

`C=C1CC(COc2ccc3ccc(=O)oc3c2)(c2ccccc2)OC1=O` (stereo not given): the GI50 in the test with KM12 is 3.27 µM (inactive); in the test on U-251, 8.93 µM (inactive); in the test with SNB-19, 15 µM (inactive); in the test on NCI-H522 it was 0.501 µM (active); with M14, 1.18 µM (inactive); in the test with SF-295 it was 6.78 µM (inactive). Also, the GI50 with OVCAR-4 was 1.49 µM (inactive); in the test with MDA-MB-231, 2.52 µM (inactive); in the test on EKVX, 7.5 µM (inactive); in the test on LOX IMVI, 0.942 µM (active); in the test with HCC 2998 it was 1.27 µM (inactive); in the test on 786-0, 1.46 µM (inactive). Moreover, the GI50 is 11.6 µM (inactive) with HOP-62; 0.316 µM (active) with SW-620; 1.53 µM (inactive) with SK-MEL-2; 1.87 µM (inactive) in the test on T47D; 0.867 µM (active) with SR; 0.685 µM (active) in the test on HOP-92.

Regarding `Cc1cccc2[nH]c3c(c(O)cc4[nH]c5cccc(C)c5c(=O)c43)c(=O)c12`, the GI50 is 6.87 µM (inactive) in the test with KM12; 3.3 µM (inactive) with U-251; > 10 µM (inactive) in the test on SNB-19; > 10 µM (inactive) in the test with NCI-H522; 4.47 µM (inactive) in the test with M14; 7.53 µM (inactive) in the test on SF-295. For the same compound, the GI50 in the test with OVCAR-4 is 4.33 µM (inactive); in the test with MDA-MB-231, 8.11 µM (inactive); with EKVX, 6.53 µM (inactive); in the test with LOX IMVI, 3.65 µM (inactive); in the test on HCC 2998, > 10 µM (inactive); in the test with RXF 393 it was 7 µM (inactive). Further, the GI50 in the test on 786-0 is 2.99 µM (inactive); with HOP-62 it was > 10 µM (inactive); in the test on SW-620 it was 6.11 µM (inactive); in the test on SK-MEL-2 it was > 10 µM (inactive); in the test with T47D it was 8.83 µM (inactive); with A498 it was > 10 µM (inactive).

`COc1ccc(/C=C2\CCC(C)C3=C(c4ccc(OC)c(OC)c4)C(C#N)=C(N)OC32)cc1OC` (stereo not given): the GI50 in the test with KM12 is 3.3 µM (inactive); in the test with U-251, 3.58 µM (inactive); in the test on SNB-19, 7.94 µM (inactive); with M14, 3.17 µM (inactive); in the test on SF-295, 3.43 µM (inactive); in the test with MDA-MB-231 it was 2.95 µM (inactive). For the same compound, the GI50 in the test on EKVX is 1.86 µM (inactive); with LOX IMVI, 3.16 µM (inactive); in the test on RXF 393, 1.65 µM (inactive); in the test on 786-0 it was 3.35 µM (inactive); in the test with SW-620 it was 4.29 µM (inactive); with SK-MEL-2, 1.97 µM (inactive). In addition, the GI50 in the test on T47D is 2.17 µM (inactive); with A498 it was 3.76 µM (inactive).

For `CN(C)CC/C=C1\c2ccccc2Sc2ccc(Cl)cc21`, the GI50 is 21 µM (inactive) in the test with KM12; 12.7 µM (inactive) with U-251; 15.5 µM (inactive) with SNB-19; 12.6 µM (inactive) in the test on NCI-H522; 3.01 µM (inactive) in the test with M14; 15.9 µM (inactive) in the test with SF-295. Further, the GI50 in the test on OVCAR-4 is 12.6 µM (inactive); in the test on MDA-MB-231, 13.6 µM (inactive); in the test with EKVX, 10.1 µM (inactive); in the test on LOX IMVI, 13.8 µM (inactive); in the test with HCC 2998, 2.22 µM (inactive); in the test with RXF 393, 12.5 µM (inactive). For the same compound, the GI50 was 12.2 µM (inactive) with 786-0; 14.4 µM (inactive) in the test with HOP-62; 16.3 µM (inactive) with SW-620; 16.1 µM (inactive) in the test on SK-MEL-2; 16.3 µM (inactive) in the test with T47D; 14.3 µM (inactive) in the test with A498. Besides, the GI50 with HOP-92 is 4.75 µM (inactive).

Regarding `CNC(=O)CCC(NC(C)=O)C(=O)NC(Cc1ccc(NC(=O)CCCCC(C)=O)cc1)C(=O)NC(CCC(=O)NC)C(=O)NC` (stereo not given), the GI50 in the test on KM12, with U-251, in the test on SNB-19, in the test on NCI-H522, in the test on M14 and in the test on SF-295 was > 100 µM (inactive) throughout. Also, the GI50 in the test with OVCAR-4, with MDA-MB-231, with EKVX, in the test with LOX IMVI, with HCC 2998 and in the test with RXF 393 was > 100 µM (inactive) in each case. Further, the GI50 in the test with 786-0, in the test on HOP-62, in the test on SW-620, in the test with T47D, in the test on A498 and in the test on HOP-92 was > 100 µM (inactive) in each case.

On to `COc1ccc(C2Oc3c(cccc3OC)C=C2[N+](=O)[O-])cc1` (stereo not given), for which the GI50 with KM12 was 1.92 µM (inactive); in the test with U-251, 1.86 µM (inactive); with SNB-19 it was 3.99 µM (inactive); in the test on NCI-H522 it was 1.32 µM (inactive); in the test with M14, 0.743 µM (active); in the test with SF-295, 3.83 µM (inactive). In addition, the GI50 in the test with OVCAR-4 is 2.96 µM (inactive); with MDA-MB-231, 3.3 µM (inactive); in the test with EKVX it was 10.6 µM (inactive); in the test on LOX IMVI, 1.2 µM (inactive); in the test with RXF 393, 1.4 µM (inactive); in the test with 786-0 it was 2.31 µM (inactive). The GI50 is 2.49 µM (inactive) with HOP-62, 3.75 µM (inactive) in the test with T47D and 2 µM (inactive) with SR.
